Experimental data: US8795977B2, “Method for screening a potential modulator compound of a taste receptor” (Conopco, Inc., priority 2009, dated 2014)

Target: T1, T1R1/T1R3 umami receptor (Homo sapiens, UniProt Q7RTX0+Q7RTX1, C757R)
T1 construct: expressed in transfected cells; host or cells: HEK293 cells stably expressing Gα15, transiently transfected
T1 sequence (Q7RTX1 21-841): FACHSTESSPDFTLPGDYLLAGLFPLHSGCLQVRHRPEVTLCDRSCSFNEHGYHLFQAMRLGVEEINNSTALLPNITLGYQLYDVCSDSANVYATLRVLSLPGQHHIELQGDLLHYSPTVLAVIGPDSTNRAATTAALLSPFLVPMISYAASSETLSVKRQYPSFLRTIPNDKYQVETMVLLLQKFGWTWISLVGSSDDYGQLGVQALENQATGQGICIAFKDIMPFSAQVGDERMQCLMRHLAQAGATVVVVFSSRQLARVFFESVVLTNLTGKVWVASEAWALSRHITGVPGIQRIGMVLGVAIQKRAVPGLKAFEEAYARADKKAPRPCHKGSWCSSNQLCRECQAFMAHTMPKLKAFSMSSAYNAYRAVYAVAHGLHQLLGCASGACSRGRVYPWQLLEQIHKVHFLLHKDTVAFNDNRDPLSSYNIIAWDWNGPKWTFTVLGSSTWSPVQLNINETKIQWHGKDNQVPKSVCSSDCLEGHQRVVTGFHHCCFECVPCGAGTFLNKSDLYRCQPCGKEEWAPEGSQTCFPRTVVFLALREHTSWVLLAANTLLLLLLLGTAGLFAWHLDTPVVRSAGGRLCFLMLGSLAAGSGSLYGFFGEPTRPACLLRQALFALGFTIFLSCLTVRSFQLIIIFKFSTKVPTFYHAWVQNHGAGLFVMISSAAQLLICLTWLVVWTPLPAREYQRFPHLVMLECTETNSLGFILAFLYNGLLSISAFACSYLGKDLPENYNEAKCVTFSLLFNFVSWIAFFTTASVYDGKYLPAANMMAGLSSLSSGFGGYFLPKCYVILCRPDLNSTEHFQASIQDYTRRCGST
T1 sequence (Q7RTX0 21-852 C757R): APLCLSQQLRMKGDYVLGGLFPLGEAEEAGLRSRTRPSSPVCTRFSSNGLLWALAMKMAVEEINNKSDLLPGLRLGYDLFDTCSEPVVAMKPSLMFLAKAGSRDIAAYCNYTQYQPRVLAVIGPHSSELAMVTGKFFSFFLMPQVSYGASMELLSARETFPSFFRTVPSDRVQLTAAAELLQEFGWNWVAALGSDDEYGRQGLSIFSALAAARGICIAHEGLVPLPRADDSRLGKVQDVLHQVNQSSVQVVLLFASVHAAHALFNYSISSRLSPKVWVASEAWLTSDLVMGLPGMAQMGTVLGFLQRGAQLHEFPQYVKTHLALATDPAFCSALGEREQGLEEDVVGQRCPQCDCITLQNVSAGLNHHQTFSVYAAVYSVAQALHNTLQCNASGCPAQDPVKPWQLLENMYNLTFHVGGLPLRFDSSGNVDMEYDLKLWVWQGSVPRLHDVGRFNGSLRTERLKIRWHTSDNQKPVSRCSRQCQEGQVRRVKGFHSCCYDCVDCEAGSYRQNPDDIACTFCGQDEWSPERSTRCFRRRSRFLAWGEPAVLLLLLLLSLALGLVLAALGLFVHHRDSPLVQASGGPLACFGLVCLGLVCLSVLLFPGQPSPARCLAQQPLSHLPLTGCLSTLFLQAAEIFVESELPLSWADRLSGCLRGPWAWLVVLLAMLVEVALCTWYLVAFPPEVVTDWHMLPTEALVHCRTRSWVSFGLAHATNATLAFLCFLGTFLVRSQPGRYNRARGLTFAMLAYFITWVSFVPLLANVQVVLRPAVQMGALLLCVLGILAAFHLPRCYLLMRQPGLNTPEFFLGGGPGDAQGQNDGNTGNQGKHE
Assay: Calcium-based receptor assay (release of intracellular calcium, Fluo-4-AM)
Format: cell-based
Design: key to T1R1/T1R3 receptor-specific signal, Calcium assay: +: For the calcium assay, cells expressing the umami receptor and Gα15 are compared with cells expressing Gα15 only; the difference between these signals is defined as umami receptor-specific signal; −: it was not possible to achieve umami receptor-specific signals using representative extracts and other complex mixtures using the calcium-based receptor assay
Settings: for release of intracellular calcium, T1R1/T1R3 umami receptor, average / release of intracellular calcium, T1R1/T1R3 umami receptor, meas. 1 / release of intracellular calcium, T1R1/T1R3 umami receptor, meas. 2: change in fluorescence (ΔF)
Experimental: FIG. 1 Activation of the T1R1/T1R3 umami receptor expressed in HEK293-Gα15 cells as measured by monitoring the release of intracellular calcium using the calcium fluorescent marker Fluo-4-AM as described in Example 2. Activity of the umami receptor was measured as the change in fluorescence which was calculated by subtracting the […]. Test solutions comprise extracts as indicated and prepared as described in Example 2. […]
We developed a unique functional umami receptor assay to evaluate and quantify umami in tomato and other crude plant or food extracts using the BRET technique: to test the principle we used the donor and acceptor proteins relating to BRET-2. In short, the human T1R1 and T1R3 taste receptors were cloned and fused with Renilla luciferase (Rluc) as donor protein; green fluorescent protein-2 (GFP2) served as acceptor protein and was fused to β-arrestin-2. Both constructs were transfected into a HEK293 cell line cells) for heterologous expression of the proteins. Various mammalian cell lines have been reported to be highly suitable for expression of receptors or other proteins, with HEK293 (human embryonic kidney) cells and CHO (Chinese hamster ovary) cells being some of the most versatile and suitable ones^12. Similarly, GPCRs can be expressed in various ways as described in multiple publications, such as transient^6, 8, 13-15 or stable (constitutive or inducible)^6, 9, 16, 17 expression, depending on the nature of the experiment, the respective receptor or the available time. Upon receptor stimulation with an agonist or crude extracts, the β-arrestin-2/GFP-2 protein interacts with the activated receptor thus bringing GFP-2 in close proximity with luciferase, making energy transfer between these two proteins possible and generating a BRET signal. In the presence of oxygen the luciferase catalyses the transformation of the substrate DeepBlueC into coelenteramide, which can be measured at 395-410 nm. If GFP-2 is in close proximity to the luciferase and energy transfer takes place, the emission will shift to 510 nm; this is referred to as the BRET signal and is expressed as ratio between the acceptor (GFP-2) and the donor (Renilla luciferase). The following experiments are designed to illustrate that conventional calcium-based functional receptor assays are not suitable for measuring the effects of crude extracts; in contrast, the BRET assay (as indicated here with umami) can clearly measure specific receptor responses using crude natural extracts. Moreover, the assay is also sensitive enough for detecting differences of receptor activation between the different tomato samples. Materials & Methods: Chemicals and Media: Fluo-4 AM was from Molecular Probes (# F-14202, prepared as 5 mM stock in DMSO), DMEM (with 4.5 g/l glucose and ultraglutamine, # BE12-604F) was from Lonza, trypsin-EDTA, Lipofectamine 2000, OptiMem and FCS were obtained from Life Technologies Invitrogen. Monosodium glutamate (MSG), Inosine 5′-monophosphate as well as all other chemicals were from Sigma-Aldrich. The plasmid encoding GFP2-β-arrestin-2 was purchased from BioSignal Packard (#6310176). Coelenterazine 400A (a DeepBlueC derivative) and Coelenterazine-H were from VWR International (# BTIU10125-1 and 233903-50, respectively). All other cell culture supplies were from Greiner BioOne. Receptor Fusion Constructs, Cell Lines, and Media: The human T1R1 and human T1R3 umami receptors were fused at their C-terminal in frame to Renilla Luciferase (Rluc) using standard molecular cloning techniques and the codon-humanized pRluc-N3 vector from PerkinElmer (#6310220). For expression of the umami receptors and the construct encoding GFP-2/β-arrestin-2, HEK293 cells (human embryonic kidney cells, ATCC) were used using traditional transfection methods (see also below). HEK293 cells were maintained in DMEM and 10% FBS at 37° C./5% CO2. […]

SMILES: N[C@@H](CCC(=O)O)C(=O)[O-].[Na+] [MSG, Monosodium glutamate]
- release of intracellular calcium, T1R1/T1R3 umami receptor, average (100 μM MSG): 1170
- release of intracellular calcium, T1R1/T1R3 umami receptor, meas. 1 (100 μM MSG): 1146
- release of intracellular calcium, T1R1/T1R3 umami receptor, meas. 2 (100 μM MSG): 1193
- release of intracellular calcium, T1R1/T1R3 umami receptor, average (1 mM MSG): 3269
- release of intracellular calcium, T1R1/T1R3 umami receptor, meas. 1 (1 mM MSG): 2548
- release of intracellular calcium, T1R1/T1R3 umami receptor, meas. 2 (1 mM MSG): 3990
- release of intracellular calcium, T1R1/T1R3 umami receptor, average (10 mM MSG): 6749
- release of intracellular calcium, T1R1/T1R3 umami receptor, meas. 1 (10 mM MSG): 5766
- release of intracellular calcium, T1R1/T1R3 umami receptor, meas. 2 (10 mM MSG): 7732
- T1R1/T1R3 receptor-specific signal, Calcium assay (MSG 10 mM): +
- umami receptor-specific response in the calcium-based receptor assay (in words) (receptor-expressing versus control cells): umami receptor-specific responses
